Structures are written as SMILES. Read-outs that look alike come from different tables or passages of the source. Where only a bound is given, the exact number is not on record here.

The subject of one assay is MV4-11 cells. Put plainly: Leukemia cell proliferation inhibition test (ATPlite), MV4-11. It is filed as cell-based. As to conditions: Homo sapiens, read-out: MV4-11 cell proliferation inhibition effect. The protocol:
(§1) A leukemia cell proliferation inhibition test was performed for the compounds of the present invention by using the leukemia cell strains MV4-11 (ATCC Number, CRL-9591) and Molm-13 (DSMZ Number, ACC554).
(§2) The leukemia cell proliferation inhibition test was performed by the method described below.
(§3) For the purpose of measuring proliferation inhibition attained with a compound, the total cell count was quantified on the basis of the total cellular ATP concentration using the ATPlite (PerkinElmer) reagent utilizing firefly luciferase. The Molm-13 or MV4-11 cells were added to the RPMI medium containing penicillin and streptomycin (penn/strep) and 10% FBS at a density of 2×10^5 cells/ml, and 50 μL (10,000 cells) of the cell suspension was inoculated to each well of a 96-well plate (Corning).
(§4) A serially diluted solution of a compound or 0.1% DMSO (solvent control) in a volume of 50 μL was added to the cells, and then the cells were cultured for 72 hours under the standard cell proliferation conditions (37° C., 5% CO2) to allow proliferation of the cells. In order to measure the proliferation of the total cells, equal volume of the ATPlite reaction mixture was added to each well in accordance with the instructions attached to ATPlite, and then luminescence count of the well was measured (relative light unit, RLU).
(§5) The RLU signal observed with the DMSO solvent control after 72 hours of the culture was defined as a signal indicating 0% inhibition, and the GI50 value for the proliferation inhibition corresponds to a concentration of a compound that provides 50% inhibition based on the proliferation of the total cells contained in the DMSO solvent control. Each data point was obtained from samples in duplicate. The GI50 values were calculated by the non-linear regression fitting (Fit Model (205)) according to a sigmoid dose-reaction equation using the XLfit software.
(ATP-based viability assays read luminescence as a measure of living cells.)

Assay [1] addresses T1, human FLT3 protein (FLT3 (WT)) (Homo sapiens, UniProt P36888).
T1 construct: human FLT3 protein (intracellular region, 564 to 993 aa); GST; purchased Carna Biosciences; host or cells: baculovirus expression system
T1 sequence (P36888 564-993): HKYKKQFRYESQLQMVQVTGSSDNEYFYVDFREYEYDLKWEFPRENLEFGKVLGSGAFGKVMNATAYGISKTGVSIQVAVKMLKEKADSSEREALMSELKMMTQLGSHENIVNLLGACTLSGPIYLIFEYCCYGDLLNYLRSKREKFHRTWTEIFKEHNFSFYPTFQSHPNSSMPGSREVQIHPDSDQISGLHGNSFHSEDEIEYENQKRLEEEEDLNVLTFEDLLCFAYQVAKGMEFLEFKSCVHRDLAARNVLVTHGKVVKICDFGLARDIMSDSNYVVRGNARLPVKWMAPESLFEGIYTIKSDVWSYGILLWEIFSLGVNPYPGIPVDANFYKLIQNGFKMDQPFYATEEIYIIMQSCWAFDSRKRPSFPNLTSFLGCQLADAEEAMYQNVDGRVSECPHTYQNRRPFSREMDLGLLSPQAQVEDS
Put plainly: FLT3 inhibition test (FLT3 enzyme inhibition, time-resolved fluorescence of substrate peptide phosphorylation). As to conditions: read-out: FLT3 (WT) enzyme inhibition activity. The class given is biochemical. The procedure: The FLT3 inhibition test was performed for the compounds of the present invention by the method described below.
A reaction mixture in a volume of 9 μL containing the FLT3 protein and a test compound of a predetermined concentration (1.2 μg of FLT3, 100 mM HEPES, 10 mM MgCl2, 25 mM NaCl, 0.01% BSA, 1 mM DTT, pH 7.5) was left standing at 25° C. for 15 minutes. […] (Toray Industries), and 3 μL (final concentration 50 μM) of ATP (Sigma-Aldrich) were added to the reaction mixture, and the mixture was shaken for 2 minutes, and then further left standing at 25° C. for 30 minutes to allow the enzymatic reaction.

A further assay concerns Molm-13 cells. The experiment in a line: Leukemia cell proliferation inhibition test (ATPlite), Molm-13. It is filed as cell-based. As to conditions: Homo sapiens, read-out: MOLM13 cell proliferation inhibition effect. The procedure: as §1, §2, §3, §4, §5
Setting [2] is: MV4-11, 72 h, MV4-11, 72 hours culture, ATPlite, GI50 per method.
[3] abbreviates: GST-fused human FLT3 (564 to 993 aa), ATP 50 μM.
The mark [4] stands for this setting: MOLM-13, 72 h, Molm-13, 72 hours culture, ATPlite, GI50 per method.

Take `CCCNc1nc(Nc2cncc(F)c2)ncc1C#CC(C)(C)CCNC(=O)[C@H](C)N(C)C(=O)/C=C/CN(C)C` [Compound 9-21]: the IC50 with MV4-11 cells (setting [2]) is less than 10 nM; in assay [1] (setting [3]), less than 10 nM; with Molm-13 cells (setting [4]), 10 to 100 nM.

As to `CN(C)C/C=C/C(=O)N1CCC[C@H]1C(=O)N[C@H]1C[C@@H](C#Cc2cnc(Nc3ccc(C#N)cc3)nc2NC2CC2)C1` [Compound 15-12], the IC50 (in the assay on MV4-11 cells (setting [2]); in assay [1] (setting [3]); in the assay with Molm-13 cells (setting [4])) was less than 10 nM in each case.

In the case of `CCCNc1nc(Nc2ccc3cnn(C)c3c2)ncc1C#CCCCNC(=O)[C@H](C)N(C)C(=O)/C=C/CN(C)C` [Compound 21-9], the IC50 (with MV4-11 cells (setting [2]); in assay [1] (setting [3]); in the assay with Molm-13 cells (setting [4])) was less than 10 nM in each case.

For `CCCNc1nc(Nc2ccc(C(N)=O)cc2)ncc1C#Cc1ccc2nc(CNC(=O)/C=C/CN(C)C)[nH]c2c1` [Compound 8-9], the IC50 in the assay on MV4-11 cells (setting [2]) is 10 to 100 nM; in assay [1] (setting [3]) it was less than 10 nM; with Molm-13 cells (setting [4]) it was 10 to 100 nM.

Turning to `CCCNc1nc(NC(=O)Nc2ccncc2)ncc1C(=O)NCCCNC(=O)CN(C)C(=O)/C=C/CN(C)C` [Compound 6-13], the results for the IC50 (with MV4-11 cells (setting [2]); in assay [1] (setting [3]); in the assay on Molm-13 cells (setting [4])) were 100 to 1000 nM, less than 10 nM and 100 to 1000 nM, respectively.

As for `C[C@@H](C(=O)Nc1cccc(C#Cc2cnc(NCCc3ccncc3)nc2N2CCOCC2)c1)N(C)C(=O)/C=C/CN(C)C` [Compound 12-13, (S,E)-4-(dimethylamino)-N-methyl-N-(1-((3-((4-morpholino-2-((2-(pyridin-4-yl)ethyl)amino)pyrimidin-5-yl)ethynyl)phenyl)amino)-1-oxopropan-2-yl)-2-butenamide], the IC50 (in the assay on MV4-11 cells (setting [2]); in assay [1] (setting [3]); in the assay on Molm-13 cells (setting [4])) was less than 10 nM each time.

Take `CCCNc1nc(Nc2ccc3c(c2)c(OC)nn3C)ncc1C#CCCCNC(=O)[C@@H]1CCCN1C(=O)/C=C/CN(C)C` [Compound 22-30]: the IC50 in the assay on MV4-11 cells (MV4-11, MV4-11 cell) is less than 10 nM; in assay [1] (FLT3 (WT)), less than 10 nM; with Molm-13 cells (MOLM-13, MOLM13 cell), less than 10 nM.

As to `Cc1ccc(Nc2nc(Nc3cccc(F)c3)ncc2C#CCCCNC(=O)[C@H](C)N(C)C(=O)/C=C/CN(C)C)cc1` [Compound 10-11], the figures for the IC50 (with MV4-11 cells (setting [2]); in assay [1] (setting [3]); in the assay with Molm-13 cells (setting [4])) were less than 10 nM, less than 10 nM and 10 to 100 nM, respectively.

Take `CCCNc1nc(Nc2ccc3nccnc3c2)ncc1C#CCCCNC(=O)[C@H](C)N(C)C(=O)/C=C/CN(C)C` [Compound 22-4]: the IC50 was less than 10 nM in the assay on MV4-11 cells (MV4-11, MV4-11 cell); less than 10 nM in assay [1] (FLT3 (WT)); less than 10 nM in the assay with Molm-13 cells (MOLM-13, MOLM13 cell).

In the case of `CCCNc1nc(Nc2cccc(F)c2)ncc1C#C[C@@H]1CC[C@H](NC(=O)[C@H](C)N(C)C(=O)/C=C/CN(C)C)C1` [Compound 13-10], the IC50 (in the assay with MV4-11 cells (setting [2]); in assay [1] (setting [3]); in the assay on Molm-13 cells (setting [4])) was less than 10 nM in each case.

Consider `CCCNc1nc(Nc2ccc(C#N)cc2)ncc1C#C[C@@H]1CC[C@H](NC(=O)[C@H](C)N(C)C(=O)/C=C/CN(C)C)C1` [Compound 13-11], for which the IC50 (in the assay on MV4-11 cells (setting [2]); in assay [1] (setting [3]); in the assay with Molm-13 cells (setting [4])) was less than 10 nM throughout.

`CCCNc1nc(Nc2ccc3c(F)nn(C)c3c2)ncc1C#CCCCNC(=O)[C@H](C)N(C)C(=O)/C=C/CN(C)C` [Compound 22-58]: the IC50 was less than 10 nM in the assay with MV4-11 cells (MV4-11, MV4-11 cell); less than 10 nM in assay [1] (FLT3 (WT)); less than 10 nM in the assay on Molm-13 cells (MOLM-13, MOLM13 cell).

Consider `CCCNc1nc(Nc2ccc(OC)c(F)c2)ncc1C#CCCCNC(=O)[C@H](C)N(C)C(=O)/C=C/CN(C)C` [Compound 7-20, (S,E)-4-(Dimethylamino)-N-(1-((5-(2-((3-fluoro-4-methoxyphenyl)amino)-4-(propylamino)pyrimidin-5-yl)-4-pentyn-1-yl)amino)-1-oxopropan-2-yl)-N-methyl-2-butenamide], for which the IC50 (in the assay with MV4-11 cells (setting [2]); in assay [1] (setting [3]); in the assay on Molm-13 cells (setting [4])) was less than 10 nM throughout.

Consider `C=CC(=O)N1CCC(NC(=O)c2cnc(NCCc3ccncc3)nc2NCCC)C1` (stereo not drawn) [Compound 6-16], for which the figures for the IC50 (in the assay with MV4-11 cells (setting [2]); in assay [1] (setting [3]); with Molm-13 cells (setting [4])) were 100 to 1000 nM, 10 to 100 nM and 10 to 100 nM, respectively.
